From patent US8741570B2, “Thermo-optical characterisation of nucleic acid molecules” (Ludwig-Maximilians-Universitat Munchen, priority 2008, dated 2014)
One block for each molecule: values may come before it. {AF700} = Alexa Fluor 700 fluorescent dye

Columns and labels:
bacteriophage lambda DNA = assay: DNA hybridization thermophoresis of labelled probe with lambda DNA; assay type: binding
Method: Typical target molecules are longer than 20 bases and double stranded. For target molecules longer than 20 bases and double stranded, one has to expect a competing reaction between the labeled probe and the target DNA strands containing the same “probe-sequence”. […] The concentration change is determined in samples containing the pure DNA probe and in solutions containing the probe mixed with lambda DNA. We checked twice for the hybridization of probe DNA and lambda DNA. First after simply mixing of the molecules and second after an additional annealing procedure (94° C., 5 min and 72° C., 5 min) was carried out.
The experiment shown in FIG. 38 (b) is performed at a constant concentration of 40 nM probe DNA and 10 nM target DNA. All samples are preferably measured in a 100 μm-1 mm Capillary. The thermo-optical properties of the probe DNA have been determined in an independent experiment, followed by a mix of probe and target. […]
After an equilibration time of preferably 10 seconds a first capillary can be measured. […]
Step 1. […] (The thermo-optical properties (i.e. concentration change) of the free probe molecule is known from an independent experiment. Alternatively the thermo-optical behavior of a DNA molecule similar to the probe, but not complementary to a target molecule, is measured simultaneously in a multiplex approach (internal reference)).
Step 2. […] The immediately established local spatial temperature distribution causes the labeled primers and elongated primers (as well as internal reference standards) to drift to lower or higher temperatures, depending on the particular molecule to be analyzed and conditions like pH, salt concentration etc. […] The maximum temperature elevation is set below values which would harm the molecules to be analyzed or hinder their hybridization. […]
Step 3. During the laser heating an image of the fluorescence distribution is recorded (or multiple frames which may be averaged to a single image). Afterwards the infrared laser and the fluorescence excitation light source are turned off. […]

[1] = Hydration entropy from literature; assay type: physicochemical; details: linear scaling with surface area using radius a=2 nm
Text: The intercept ST(λDH=0), where ionic contributions are zero, also scales with particle surface and is described by a hydration entropy per particle surface of shyd=−1400 J/(molKμm^2). The value matches the literature values for similar surfaces reasonably well^30,31. […] Linear scaling with its surface area by using a radius of a=2 nm results in a value of shyd=−2500 J/(molKμm^2), in qualitative agreement with our result. The hydration entropy is a highly informative molecule parameter which is notoriously difficult to measure, yielding an interesting application for thermodiffusion.

[2] = at a comparable temperature; cited from earlier work
[3] = Thermodiffusion (Soret coefficient) by microfluidic fluorescence imaging / single particle tracking; assay type: physicochemical; details: 50 μM dye in 10 mM TRIS buffer, concentration over time method

Molecule: 5′-GATGAGTTCGTGTCCGTACAACTGG-3′ (DNA, 5' {AF700}, backbone and methylation of C not given here) [probe]
concentration change (bacteriophage lambda DNA; free probe, 40 nM): −2%
concentration change (bacteriophage lambda DNA; probe 40 nM mixed with 10 nM lambda DNA, without annealing procedure): −3%
concentration change (bacteriophage lambda DNA; probe 40 nM with 10 nM lambda DNA after denaturing (94° C., 5 min) and annealing (72° C., 5 min)): −10%

hydration entropy per surface shyd [1]: −2500 J/(molKμm^2)
Molecule: C[C@H](NS(=O)(=O)c1cccc2c(N(C)C)cccc12)C(=O)O [Dansyl-Alanine]
hydration entropy [2]: −0.13 J/(molK)

Soret coefficient ST [3]: 0.015 /K
Molecule: BCECF
